Test results as given in the NIST ThermoML archive (doi:10.1016/j.fluid.2014.11.020).
± gives the expanded uncertainty stated by the source.

Assay: activity coefficient (dimensionless); of the first substance listed, at infinite dilution; xn = mol fraction of the nth substance listed
Conditions: Liquid, Chromatography, x1 = 0

c1ccsc1 [thiophene] + CCCCCCCCn1cc[n+](COCCC)c1C.N#C[N-]C#N
activity coefficient (323.15 K): 0.66 ± 0.05 | activity coefficient (333.15 K): 0.66 ± 0.05 | activity coefficient (343.15 K): 0.64 ± 0.04

c1ccsc1 [thiophene] + CCCCCCCCn1cc[n+](COCCC)c1C.O=S(=O)([N-]S(=O)(=O)C(F)(F)F)C(F)(F)F
activity coefficient (323.15 K): 0.57 ± 0.04 | activity coefficient (333.15 K): 0.52 ± 0.04 | activity coefficient (343.15 K): 0.56 ± 0.04

c1ccsc1 [thiophene] + CCCCCCCCn1cc[n+](COCCCOC[n+]2ccn(CCCCCCCC)c2C)c1C.N#C[N-]C#N.N#C[N-]C#N
activity coefficient (323.15 K): 0.49 ± 0.04 | activity coefficient (333.15 K): 0.49 ± 0.04 | activity coefficient (343.15 K): 0.51 ± 0.04

c1ccsc1 [thiophene] + CCCCCCCCn1cc[n+](COCCCOC[n+]2ccn(CCCCCCCC)c2C)c1C.O=S(=O)([N-]S(=O)(=O)C(F)(F)F)C(F)(F)F.O=S(=O)([N-]S(=O)(=O)C(F)(F)F)C(F)(F)F
activity coefficient (323.15 K): 0.38 ± 0.03 | activity coefficient (333.15 K): 0.37 ± 0.03 | activity coefficient (343.15 K): 0.38 ± 0.03

c1ccsc1 [thiophene] + CCCOC[n+]1ccc(N(C)C)cc1.O=S(=O)([N-]S(=O)(=O)C(F)(F)F)C(F)(F)F
activity coefficient (323.15 K): 0.65 ± 0.04 | activity coefficient (333.15 K): 0.69 ± 0.05 | activity coefficient (343.15 K): 0.69 ± 0.05

c1ccsc1 [thiophene] + CCCOC[n+]1ccn(C)c1.F[B-](F)(F)F
activity coefficient (323.15 K): 2.26 ± 0.15 | activity coefficient (333.15 K): 2.27 ± 0.15 | activity coefficient (343.15 K): 2.27 ± 0.15

c1ccsc1 [thiophene] + CCCOC[n+]1ccn(C)c1.N#C[N-]C#N
activity coefficient (323.15 K): 1.41 ± 0.09 | activity coefficient (333.15 K): 1.45 ± 0.1 | activity coefficient (343.15 K): 1.5 ± 0.1

c1ccsc1 [thiophene] + CCCOC[n+]1ccn(C)c1.O=S(=O)([N-]S(=O)(=O)C(F)(F)F)C(F)(F)F
activity coefficient (323.15 K): 1.06 ± 0.07 | activity coefficient (333.15 K): 1.05 ± 0.07 | activity coefficient (343.15 K): 1.04 ± 0.07

c1ccsc1 [thiophene] + CCCOC[n+]1ccn(Cc2ccccc2)c1.F[B-](F)(F)F
activity coefficient (323.15 K): 1.33 ± 0.09 | activity coefficient (333.15 K): 1.27 ± 0.08 | activity coefficient (343.15 K): 1.25 ± 0.08

c1ccsc1 [thiophene] + CCCOC[n+]1ccn(Cc2ccccc2)c1.N#C[N-]C#N
activity coefficient (323.15 K): 0.98 ± 0.06 | activity coefficient (333.15 K): 1.02 ± 0.06 | activity coefficient (343.15 K): 1.04 ± 0.07

c1ccsc1 [thiophene] + CCCOC[n+]1ccn(Cc2ccccc2)c1.O=S(=O)([N-]S(=O)(=O)C(F)(F)F)C(F)(F)F
activity coefficient (323.15 K): 0.7 ± 0.05 | activity coefficient (333.15 K): 0.62 ± 0.04 | activity coefficient (343.15 K): 0.62 ± 0.04

c1ccsc1 [thiophene] + CN(C)c1cc[n+](COCCCOC[n+]2ccc(N(C)C)cc2)cc1.O=S(=O)([N-]S(=O)(=O)C(F)(F)F)C(F)(F)F.O=S(=O)([N-]S(=O)(=O)C(F)(F)F)C(F)(F)F
activity coefficient (323.15 K): 0.55 ± 0.04 | activity coefficient (333.15 K): 0.56 ± 0.04 | activity coefficient (343.15 K): 0.57 ± 0.04

c1ccsc1 [thiophene] + Cn1cc[n+](COCCCOC[n+]2ccn(C)c2)c1.N#C[N-]C#N.N#C[N-]C#N
activity coefficient (323.15 K): 1.58 ± 0.1 | activity coefficient (333.15 K): 1.63 ± 0.11 | activity coefficient (343.15 K): 1.68 ± 0.11

c1ccsc1 [thiophene] + Cn1cc[n+](COCCCOC[n+]2ccn(C)c2)c1.O=S(=O)([N-]S(=O)(=O)C(F)(F)F)C(F)(F)F.O=S(=O)([N-]S(=O)(=O)C(F)(F)F)C(F)(F)F
activity coefficient (323.15 K): 0.77 ± 0.05 | activity coefficient (333.15 K): 0.78 ± 0.05 | activity coefficient (343.15 K): 0.78 ± 0.05

c1ccsc1 [thiophene] + N#C[N-]C#N.N#C[N-]C#N.c1ccc(Cn2cc[n+](COCCCOC[n+]3ccn(Cc4ccccc4)c3)c2)cc1
activity coefficient (323.15 K): 1.7 ± 0.11 | activity coefficient (333.15 K): 1.64 ± 0.11 | activity coefficient (343.15 K): 1.67 ± 0.11

Cc1ccccc1 [toluene] + CCCCCCCCn1cc[n+](COCCC)c1C.N#C[N-]C#N
activity coefficient (323.15 K): 1.43 ± 0.09 | activity coefficient (333.15 K): 1.22 ± 0.08 | activity coefficient (343.15 K): 1.15 ± 0.07

Cc1ccccc1 [toluene] + CCCCCCCCn1cc[n+](COCCC)c1C.O=S(=O)([N-]S(=O)(=O)C(F)(F)F)C(F)(F)F
activity coefficient (323.15 K): 0.76 ± 0.05 | activity coefficient (333.15 K): 0.76 ± 0.05 | activity coefficient (343.15 K): 0.77 ± 0.05

Cc1ccccc1 [toluene] + CCCCCCCCn1cc[n+](COCCCOC[n+]2ccn(CCCCCCCC)c2C)c1C.N#C[N-]C#N.N#C[N-]C#N
activity coefficient (323.15 K): 0.94 ± 0.06 | activity coefficient (333.15 K): 0.95 ± 0.06 | activity coefficient (343.15 K): 0.97 ± 0.06
